In ChEMBL document CHEMBL3102818, “Tocopheramine succinate and tocopheryl succinate: mechanism of mitochondrial inhibition and superoxide radical production” (Bioorg Med Chem, 2014):
pIC50: −log10 of the molar value. Activity calls are given as the source filed them. No cut-off for these calls is given here.

Tests used:
Bos taurus [1] = organism: Bos taurus; experiment: Induction of superoxide radical generation in bovine succinate-respiring submitochondrial particles assessed as oxidation of CPH at 50 uM after 2 mins by ESR spectroscopy; type: functional
Bos taurus [2] = organism: Bos taurus; experiment: Induction of superoxide radical generation in bovine NADH-respiring submitochondrial particles assessed as oxidation of CPH at 900 uM after 2 mins by ESR spectroscopy in presence of superoxide dismutase relative to control; type: functional
Bos taurus [3] = organism: Bos taurus; experiment: Inhibition of oxygen consumption in bovine NADH-respiring submitochondrial particles involving complexes 1,3,4 after 3 mins relative to control; type: functional
HeLa = experiment: Cytotoxicity against human HeLa cells at 100 to 200 uM by MTT assay; type: functional, cell-based
Bos taurus [4] = organism: Bos taurus; experiment: Induction of superoxide radical generation in bovine succinate-respiring submitochondrial particles assessed as oxidation of CPH at 900 uM after 2 mins by ESR spectroscopy in presence of superoxide dismutase relative to control; type: functional
Bos taurus [5] = organism: Bos taurus; experiment: Inhibition of oxygen consumption in bovine succinate-respiring submitochondrial particles involving complexes 2,3,4 after 3 mins relative to control; type: functional
Bos taurus [6] = organism: Bos taurus; experiment: Induction of superoxide radical generation in bovine succinate-respiring submitochondrial particles assessed as oxidation of CPH after 2 mins by ESR spectroscopy relative to control; type: functional
[7] = Inhibition of bovine mitochondrial electron transport protein complex 2 succinate:DCPIP oxidoreductase activity by spectrophotometry; set-up: species or system Bos taurus
Liver [8] = experiment: Drug degradation in denaturated rat liver homogenates assessed as compound recovery at 500 nmol after 4 hrs by HPLC analysis; type: ADME, tissue-based; conditions: tissue homogenate
N18TG2 [9] = experiment: Induction of superoxide radical generation in mouse N18TG2 cells assessed as CMH oxidation at 200 uM after 2 hrs by ESR spectroscopy relative to control; type: functional, cell-based
Liver [10] = experiment: Drug degradation in rat liver homogenates assessed as alpha-TOH formation at 500 nmol after 4 hrs by HPLC analysis; type: ADME, tissue-based; conditions: tissue homogenate
[11] = Drug degradation in mouse N18TG2 cells assessed as alpha-TOH formation at 10 nmol after 24 hrs by HPLC analysis; type: ADME, cell-based; conditions: n18tg2, 24 h
Bos taurus [12] = organism: Bos taurus; experiment: Induction of superoxide radical generation in bovine NADH-respiring submitochondrial particles assessed as oxidation of CPH after 2 mins by ESR spectroscopy relative to control; type: functional
Liver [13] = experiment: Drug degradation in rat liver homogenates at 500 nmol after 4 hrs by HPLC analysis; type: ADME, tissue-based; conditions: tissue homogenate
Bos taurus [14] = organism: Bos taurus; experiment: Inhibition of bovine mitochondrial electron transport protein complex 1 NADH:dUQ oxidoreductase activity by spectrophotometry
[15] = (§1) Inhibition of bovine mitochondrial electron transport protein complex 3 dUQH2:cytochrome c oxidoreductase activity by spectrophotometry; set-up: species or system Bos taurus
N18TG2 [16] = experiment: Cytotoxicity against mouse N18TG2 cells at 6.25 to 100 uM by MTT assay; type: functional, cell-based
Bos taurus [17] = organism: Bos taurus; experiment: as §1
Bos taurus [18] = organism: Bos taurus; experiment: Induction of superoxide radical generation in bovine succinate-respiring submitochondrial particles assessed as oxidation of CPH at 36 uM after 2 mins by ESR spectroscopy in presence of rotenone; type: functional
Bos taurus [19] = organism: Bos taurus; experiment: Induction of superoxide radical generation in bovine succinate-respiring submitochondrial particles assessed as oxidation of CPH at 36 uM after 2 mins by ESR spectroscopy; type: functional
Bos taurus [20] = organism: Bos taurus; experiment: Induction of superoxide radical generation in bovine NADH-respiring submitochondrial particles assessed as oxidation of CPH at 36 uM after 2 mins by ESR spectroscopy; type: functional
[21] = Induction of superoxide radical generation in mouse N18TG2 cells assessed as CMH oxidation at 50 uM after 2 hrs by ESR spectroscopy (reference value: 0.40 +/- 0.05 pmol/min); type: functional
Bos taurus [22] = organism: Bos taurus; experiment: Induction of superoxide radical generation in bovine NADH-respiring submitochondrial particles assessed as oxidation of CPH at 900 uM after 2 mins by ESR spectroscopy; type: functional
Bos taurus [23] = organism: Bos taurus; experiment: Induction of superoxide radical generation in bovine succinate-respiring submitochondrial particles assessed as oxidation of CPH at 900 uM after 2 mins by ESR spectroscopy; type: functional
Bos taurus [24] = organism: Bos taurus; experiment: Induction of superoxide radical generation in bovine succinate-respiring submitochondrial particles assessed as oxidation of CPH at 900 uM after 2 mins by ESR spectroscopy in presence of rotenone; type: functional

| SMILES | Activity (Bos taurus [2]) | inhibition (Bos taurus [3]) | Activity (HeLa) | Activity (Bos taurus [4]) | inhibition (Bos taurus [5]) | Activity (Bos taurus [6]) | pIC50 [7] | Stability (Liver [8]) | Activity (N18TG2 [9]) | Stability (Liver [10]) | Stability [11] | Activity (Bos taurus [12]) | Stability (Liver [13]) | inhibition (Bos taurus [14]) | pIC50 [15] | Activity (N18TG2 [16]) | other results |
| --- | --- | --- | --- | --- | --- | --- | --- | --- | --- | --- | --- | --- | --- | --- | --- | --- | --- |
| C=C(C)[C@H]1Cc2c(ccc3c2O[C@@H]2COc4cc(OC)c(OC)cc4[C@@H]2C3=O)O1 |  |  |  |  |  |  |  |  |  |  |  |  |  |  |  |  | Activity (Bos taurus [1]): Active |
| Cc1c(C)c2c(c(C)c1NC(=O)CCC(=O)O)CC[C@@](C)(CCC[C@H](C)CCC[C@H](C)CCCC(C)C)O2 | inactive | Dose-dependent effect | inactive | inactive | Dose-dependent effect | inactive | 3.97 | Stable | inactive | Stable | Stable | inactive | Unstable | inactive | 3.86 | Active |  |
| CC(=O)Oc1c(C)c(C)c2c(c1C)CC[C@@](C)(CCC[C@H](C)CCC[C@H](C)CCCC(C)C)O2 |  |  |  |  |  | inactive | < 3.00 |  | inactive |  |  | inactive |  |  |  |  | Drug degradation [11]: 100%; inhibition (Bos taurus [17]): Active |
| CCCCCC[C@H]1C(=O)O[C@H](C)[C@H](NC(=O)c2cccc(NC=O)c2O)C(=O)O[C@@H](C)[C@@H]1OC(=O)CC(C)C [ANTIMYCIN A] |  |  |  |  |  |  |  |  |  |  |  |  |  |  |  |  | Activity (Bos taurus [18]): Active; Activity (Bos taurus [19]): Active; Activity (Bos taurus [20]): Active; Activity [21]: 1.2 pmol/min |
| Cc1c(C)c2c(c(C)c1OC(=O)CCC(=O)O)CC[C@@](C)(CCC[C@H](C)CCC[C@H](C)CCCC(C)C)O2 [(+)-ALPHA-TOCOPHERYL SUCCINATE] | inactive | Dose-dependent effect | inactive | inactive | Dose-dependent effect | Active | 4.38 | Stable | Active | Unstable | Unstable | Active | Unstable | inactive | 3.50 | Active | Activity (Bos taurus [22]): Active; Activity (Bos taurus [23]): Active; Activity (Bos taurus [24]): Active |
